Results as given in publication PMC12298827, “Subchronic Toxicities of Four Per- and Polyfluoroalkyl Substances (PFASs) by Oral Exposure in Sprague–Dawley Rats” (Toxics, 2025).
Marks after values point to notes of the source that are not given here.

Tested on: male and female Sprague–Dawley rats
Assay: 90-day subchronic oral gavage toxicity study
Format: in vivo, rat
In short: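 Rats dosed daily by oral gavage in corn oil (3 mL/kg) for 90 days, five dose levels plus control, n = 10/sex/group, euthanized SD 91. Endpoints: clinical observation, bodyweight, feed intake, FOB/locomotor activity, ophthalmology, terminal hematology, serum chemistry, coagulation, plasma parent PFAS, organ weights, histopathology. Groups vs control by ANOVA/Dunnett's (p<0.05).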

C=CC(=O)OCC(F)(F)C(F)(F)C(F)(F)C(F)(F)C(F)(F)C(F)(F)C(F)(F)C(F)F [PFNAC, 1H,1H,9H-Perfluorononyl acrylate]
Bodyweight (BW) and bodyweight gain (90-day, both sexes, all doses): None in females; effects in males at 10 mg/kg-day were not considered adverse because they did not persist through the study (days 8–29)
Clinical observations (90-day, both sexes, all doses): None
Coagulation endpoints (90-day, both sexes, all doses): Males at ≥1 mg/kg-day, mildly shortened APTT, not considered as biologically significant
Feed consumption (90-day, both sexes, all doses): Increased in males and females in some dose groups during some time periods, not considered as adverse (not persistent or consistent although sometimes statistically significant)
Functional observational battery (90-day, both sexes, all doses): Some changes, all considered as incidental and non-adverse
Gross lesions (90-day, both sexes, all doses): None considered as PFNAC related
Hematology (90-day, both sexes, all doses): No changes in females; Males—minimal decreases in red cell mass (HGB, HCT, and RBC) at ≥0.1 mg/kg-day, minimal decreases in absolute reticulocytes at ≥1 mg/kg and from minimal to mild decreases in neutrophils and eosinophils at ≥0.1 mg/kg-day ^2
Histopathology (90-day, both sexes, all doses): The kidney and liver ^4 of males at ≥0.3 mg/kg-day and females at 30 mg/kg-day; the thyroid gland in males
Locomotor activity (90-day, both sexes, all doses): No effects
Morbidity and mortality (90-day, both sexes, all doses): None
Ophthalmology (90-day, both sexes, all doses): No ocular lesions
Organ weight changes (90-day, both sexes, all doses): Mean absolute and/or relative organ weight increases in the liver and kidneys of males at ≥0.3 mg/kg-day and females at ≥3 mg/kg-day
BMD10, absolute kidney weight increase (female): 13.4 mg/kg-day
BMD10, absolute liver weight increase (female): 11.2 mg/kg-day
BMD10, relative kidney weight increase (female): 6.0 mg/kg-day
BMD10, relative liver weight increase (female): 12.8 mg/kg-day
BMDL, absolute kidney weight increase (female): 2.68 mg/kg-day
BMDL, absolute liver weight increase (female): 8.8 mg/kg-day
BMDL, relative kidney weight increase (female): 0.8 * mg/kg-day
BMDL, relative liver weight increase (female): 10.1 mg/kg-day
LOEL, absolute kidney weight increase (female): 10 mg/kg-day
LOEL, absolute liver weight increase (female): 30 mg/kg-day
LOEL, relative kidney weight increase (female): 3 mg/kg-day
LOEL, relative liver weight increase (female): 30 mg/kg-day
NOEL, absolute kidney weight increase (female): 3 mg/kg-day
NOEL, absolute liver weight increase (female): 10 mg/kg-day
NOEL, relative kidney weight increase (female): 1 mg/kg-day
NOEL, relative liver weight increase (female): 10 mg/kg-day
A/G (female, 0.1 mg/kg-day): 1.11±0.08 ratio
ALB (female, 0.1 mg/kg-day): 4.36 ± 0.22 g/dL
ALPi (female, 0.1 mg/kg-day): 78.0±24.1 U/L
BUN (female, 0.1 mg/kg-day): 15.7 ± 1.3 mg/dL
CHOL (female, 0.1 mg/kg-day): 102.1 ± 16.7 mg/dL
GLOB (female, 0.1 mg/kg-day): 3.93 ± 0.12 g/dL
GLUC (female, 0.1 mg/kg-day): 99.4 ± 11.9 mg/dL
% BW Gain (female, 0.3 mg/kg-day): 47.16%
% Diff, % BW Gain (female, 0.3 mg/kg-day): -3.35%
% Diff, Total BW change (female, 0.3 mg/kg-day): -2.86%
% Diff, Total Food Consumed (female, 0.3 mg/kg-day): 4.16%
A/G (female, 0.3 mg/kg-day): 1.10±0.06 ratio
ABEOS (female, 0.3 mg/kg-day): 0.089±0.035 K/µL
ABNEUT (female, 0.3 mg/kg-day): 1.725±1.311 K/µL
ABRETi (female, 0.3 mg/kg-day): 188.23±26.07 10^9/L
ALB (female, 0.3 mg/kg-day): 4.44 ± 0.33 g/dL
ALPi (female, 0.3 mg/kg-day): 54.8±10.4 U/L
APTT (female, 0.3 mg/kg-day): 21.25 s
BUN (female, 0.3 mg/kg-day): 16.8 ± 3.3 mg/dL
CHOL (female, 0.3 mg/kg-day): 99.7 ± 15.0 mg/dL
GLOB (female, 0.3 mg/kg-day): 4.05 ± 0.18 g/dL
GLUC (female, 0.3 mg/kg-day): 104.6 ± 13.0 mg/dL
HCT (female, 0.3 mg/kg-day): 41.35±1.64%
HGB (female, 0.3 mg/kg-day): 13.21 ± 0.43 g/dL
Kidney Weight (female, 0.3 mg/kg-day): 1.74 g
Kidney/Body Weight (female, 0.3 mg/kg-day): 0.59%
Kidney/Brain Weight (female, 0.3 mg/kg-day): 91.4%
Liver Weight (female, 0.3 mg/kg-day): 7.76 g
Liver/Body Weight (female, 0.3 mg/kg-day): 2.62%
Liver/Brain Weight (female, 0.3 mg/kg-day): 408%
MPV (female, 0.3 mg/kg-day): 7.62 ± 0.63 fL
PT (female, 0.3 mg/kg-day): 13.79 s
RBC (female, 0.3 mg/kg-day): 7.177±0.276 M/µL
Total BW change (female, 0.3 mg/kg-day): 98.25 g
Total Food Consumed (female, 0.3 mg/kg-day): 1466 g
% BW Gain (female, 1.0 mg/kg-day): 45.99%
% Diff, % BW Gain (female, 1.0 mg/kg-day): -5.73%
% Diff, Total BW change (female, 1.0 mg/kg-day): -6.27%
% Diff, Total Food Consumed (female, 1.0 mg/kg-day): 2.64%
A/G (female, 1.0 mg/kg-day): 1.13±0.06 ratio
ABEOS (female, 1.0 mg/kg-day): 0.086±0.028 K/µL
ABNEUT (female, 1.0 mg/kg-day): 1.468±0.616 K/µL
ABRETi (female, 1.0 mg/kg-day): 180.48±14.00 10^9/L
ALB (female, 1.0 mg/kg-day): 4.43 ± 0.26 g/dL
ALPi (female, 1.0 mg/kg-day): 52.1±13.7 U/L
APTT (female, 1.0 mg/kg-day): 20.13 s
BUN (female, 1.0 mg/kg-day): 13.9 ± 2.0 mg/dL
CHOL (female, 1.0 mg/kg-day): 94.3 ± 18.7 mg/dL
GLOB (female, 1.0 mg/kg-day): 3.94 ± 0.19 g/dL
GLUC (female, 1.0 mg/kg-day): 100.9 ± 12.7 mg/dL
HCT (female, 1.0 mg/kg-day): 41.13±1.98%
HGB (female, 1.0 mg/kg-day): 13.19 ± 0.73 g/dL
Kidney Weight (female, 1.0 mg/kg-day): 1.73 g
Kidney/Body Weight (female, 1.0 mg/kg-day): 0.59%
Kidney/Brain Weight (female, 1.0 mg/kg-day): 90.7%
Liver Weight (female, 1.0 mg/kg-day): 7.89 g
Liver/Body Weight (female, 1.0 mg/kg-day): 2.67%
Liver/Brain Weight (female, 1.0 mg/kg-day): 412%
MPV (female, 1.0 mg/kg-day): 7.59 ± 0.74 fL
PT (female, 1.0 mg/kg-day): 14.03 s
RBC (female, 1.0 mg/kg-day): 7.303±0.562 M/µL
Total BW change (female, 1.0 mg/kg-day): 94.80 g
Total Food Consumed (female, 1.0 mg/kg-day): 1444 g
% BW Gain (female, 3.0 mg/kg-day): 47.09%
% Diff, % BW Gain (female, 3.0 mg/kg-day): -3.49%
% Diff, Total BW change (female, 3.0 mg/kg-day): -2.02%
% Diff, Total Food Consumed (female, 3.0 mg/kg-day): 7.48%
A/G (female, 3.0 mg/kg-day): 1.15±0.06 ratio
ABEOS (female, 3.0 mg/kg-day): 0.083±0.028 K/µL
ABNEUT (female, 3.0 mg/kg-day): 1.419±0.734 K/µL
ABRETi (female, 3.0 mg/kg-day): 176.48±43.69 10^9/L
ALB (female, 3.0 mg/kg-day): 4.56 ± 0.18 g/dL
ALPi (female, 3.0 mg/kg-day): 55.4±20.6 U/L
APTT (female, 3.0 mg/kg-day): 20.34 s
BUN (female, 3.0 mg/kg-day): 16.4 ± 1.3 mg/dL
CHOL (female, 3.0 mg/kg-day): 92.3 ± 16.3 mg/dL
GLOB (female, 3.0 mg/kg-day): 3.97 ± 0.13 g/dL
GLUC (female, 3.0 mg/kg-day): 104.4 ± 8.0 mg/dL
HCT (female, 3.0 mg/kg-day): 41.82±2.32%
HGB (female, 3.0 mg/kg-day): 13.37 ± 0.68 g/dL
Kidney Weight (female, 3.0 mg/kg-day): 1.83 g
Kidney/Body Weight (female, 3.0 mg/kg-day): 0.61%
Kidney/Brain Weight (female, 3.0 mg/kg-day): 91.1%
Liver Weight (female, 3.0 mg/kg-day): 7.96 g
Liver/Body Weight (female, 3.0 mg/kg-day): 2.67%
Liver/Brain Weight (female, 3.0 mg/kg-day): 396%
MPV (female, 3.0 mg/kg-day): 7.77 ± 0.42 fL
PT (female, 3.0 mg/kg-day): 14.15 s
RBC (female, 3.0 mg/kg-day): 7.262±0.327 M/µL
Total BW change (female, 3.0 mg/kg-day): 99.10 g
Total Food Consumed (female, 3.0 mg/kg-day): 1512 g
% BW Gain (female, 10 mg/kg-day): 46.00%
% Diff, % BW Gain (female, 10 mg/kg-day): -5.72%
% Diff, Total BW change (female, 10 mg/kg-day): -5.60%
% Diff, Total Food Consumed (female, 10 mg/kg-day): 5.11%
A/G (female, 10 mg/kg-day): 1.17±0.07 ratio
ABEOS (female, 10 mg/kg-day): 0.081±0.022 K/µL
ABNEUT (female, 10 mg/kg-day): 1.562±1.084 K/µL
ABRETi (female, 10 mg/kg-day): 160.88±34.97 10^9/L
ALB (female, 10 mg/kg-day): 4.66 ± 0.39 g/dL
ALPi (female, 10 mg/kg-day): 50.5±7.3 U/L
APTT (female, 10 mg/kg-day): 22.50 s
BUN (female, 10 mg/kg-day): 19.1 ± 3.5 mg/dL
CHOL (female, 10 mg/kg-day): 77.7 ± 14.0 mg/dL
GLOB (female, 10 mg/kg-day): 3.98 ± 0.29 g/dL
GLUC (female, 10 mg/kg-day): 108.8 ± 12.0 mg/dL
HCT (female, 10 mg/kg-day): 41.08±2.03%
HGB (female, 10 mg/kg-day): 13.12 ± 0.63 g/dL
Kidney Weight (female, 10 mg/kg-day): 1.81 g
Kidney/Body Weight (female, 10 mg/kg-day): 0.62%
Kidney/Brain Weight (female, 10 mg/kg-day): 89.98%
Liver Weight (female, 10 mg/kg-day): 8.42 g
Liver/Body Weight (female, 10 mg/kg-day): 2.88%
Liver/Brain Weight (female, 10 mg/kg-day): 419%
MPV (female, 10 mg/kg-day): 7.80 ± 0.60 fL
PT (female, 10 mg/kg-day): 14.11 s
RBC (female, 10 mg/kg-day): 7.241±0.358 M/µL
Total BW change (female, 10 mg/kg-day): 95.48 g
Total Food Consumed (female, 10 mg/kg-day): 1479 g
% BW Gain (female, 30 mg/kg-day): 52.06%
% Diff, % BW Gain (female, 30 mg/kg-day): 6.69%
% Diff, Total BW change (female, 30 mg/kg-day): 5.59%
% Diff, Total Food Consumed (female, 30 mg/kg-day): 8.40%
ABEOS (female, 30 mg/kg-day): 0.082±0.026 K/µL
ABNEUT (female, 30 mg/kg-day): 1.118±0.358 K/µL
ABRETi (female, 30 mg/kg-day): 164.87±31.05 10^9/L
APTT (female, 30 mg/kg-day): 22.09 s
HCT (female, 30 mg/kg-day): 40.37±2.37%
HGB (female, 30 mg/kg-day): 13.04 ± 0.72 g/dL
Kidney Weight (female, 30 mg/kg-day): 1.99 g
Kidney/Body Weight (female, 30 mg/kg-day): 0.65%
Kidney/Brain Weight (female, 30 mg/kg-day): 101%
Liver Weight (female, 30 mg/kg-day): 9.83 g
